Reference: US11040056B2, “Benzimidazoles that enhance the activity of oligonucleotides” (The University of North Carolina at Chapel Hill, priority 2018, dated 2021)

Tests used:
HeLaLuc705 cells = experiment: SSO-mediated luciferase induction assay; assay type: cell-based
Experimental: FIG. 1B-1E. Effects with SSOs. FIG. 1B Structure of UNC2383. […] The cells were then rinsed and incubation continued for an additional 4 h in DMEM+10% FBS. Cells were rinsed twice in PBS and luciferase activity (RLU) and cell protein determined. The larger round symbol indicates the MM oligonucleotide. Means+/−SE. N=3. […] The cells were further incubated and then luciferase and protein determined. The total time of incubation in each case was 6 h. […] Means+/−SE. N=3.
FIG. 3. Effect and Cytotoxicity of Analogs. The effect of selected UNC2383 analogs on luciferase induction by SSO623 was measured as described in Methods and in the legend of FIG. 1B-1E. Cytotoxicity was measured using the Alamar Blue method as in FIG. 1E. MM10 is the effect of 10 uM compound in the presence of a mismatched oligonucleotide. Means and SE. N=3.
HeLaLuc705 cells are stably transfected with a firefly luciferase reporter whose coding sequence is interrupted by an abnormal intron. […] NIH-3T3-MDR cells are stably transfected with a human MDR1 cDNA coding for the P-glycoprotein (Pgp). We have described the maintenance and use of these cell lines elsewhere. (18, 20)
SSO-mediated luciferase induction assays were conducted as previously described. (18) In short, HeLaLuc705 cells in 24 well culture plates were preincubated with SSO623 followed by brief treatment with the small molecule; at intervals thereafter, luciferase activity and protein content were determined. […] (30)

[1] = tested on: CFTR channel activity in human bronchial epithelial cells (HBEC) from a 3849+10 kbC-T homozygous patient; experiment: Ussing chamber analysis of CFTR function in 3849+10 kbC-T HBEC; assay type: cell-based
Source text: FIG. 11. CFTR activity restored to CF splicing mutation 3849+10 kbC-T using SSOs. SSOs were delivered in vitro by electroporation (˜100% efficiency), CF primary cells were differentiated on permeable supports and tested. Panel A. PCR analysis. The lower band is the correctly spliced CFTR. Panel B. Functional correction by Ussing chamber analysis.
FIG. 12. OEC Mediated Delivery of a SSO in 3849+10 kbC-T HBEC. Well-differentiated human bronchial epithelial cells (HBEC) derived from a 3849+10 kbC-T homozygous patient were incubated with corrective (LNA) SSO A from FIG. 1 (1 uM, overnight). Cells were then incubated with OEC UNC2383 in the luminal or serosal bath (4 uM, 2 hs). Both the SSO and OEC were added in cell growing medium. Seventy two hour later, HBEC were analyzed in Ussing chamber for CFTR function. Orkambi® was tested in parallel inserts.
Results: In vitro studies were performed in well-differentiated HBEC cells derived from a homozygous 3849+10 kbC→T CF patient (CF HBEC) treated with one dose of a specific SSO (1 uM, 12 hs) followed by one dose of OEC (apical or basolateral delivery, 2-4 uM, 2-3 hs). A significant increase of forskolin-stimulated CFTR activity in Ussing chamber analyses was observed 24-96 hs after SSO+OEC treatment compared to SSO alone treatment or vehicle. OEC was efficacious delivered apically as well as basolaterally. Transepithelial resistance and microscopy tests were implemented to monitor cytotoxicity, which was negligible for both SSO and OEC (FIG. 12). In vivo studies were performed in a transgenic mouse model that has a SSO-inducible EGFP reporter.
SSOs (100 nM) were introduced in airway epithelial cells derived from a 3849+10 kbC-T homozygous CF patient in suspension by electroporation using the Neon system, program A4. Cells were differentiated for 2 weeks in culture on human collagen-coated permeable supports (Millipore) before being tested in Ussing chambers following methods described in Kreda et al. […] “Characterization of Wild-Type and ΔF508 Cystic Fibrosis Transmembrane Regulator in Human Respiratory Epithelia” Mol. Biol. Cell 16(5):2154-2167 (100 uM Amiloride, Amil; 10 uM Forskolin, Fsk; 20 uM CFTR inhibitor 172). After Ussing chamber analysis, cells were lysed and assayed for RT-PCR as described in Wang et al 2017 (FIG. 11).
(SEQ ID NO:2), C (5′+G*mA*mG*mU*+C*mU*mU**mU*mA*+C*mU*mC*mA*mC*mC*+A*mU*mU*mU) (SEQ ID NO:3) (Locked Nucleic Acid (LNA)=+, PS=*, 2′OMe=m). In SSO sequences A, B, and C the underlined bases indicate oligo bases that match up to the bases in the mutated splice site in the 3849+10 kb C-T CFTR splicing mutation. MM623 or SSO623 sequences are described herein. […]

[2] = cells preloaded with 100 nM SSO623, FIG. 1D

O=C(Nc1nc2ccccc2n1CCN1CCCC1)c1cc2cc(Cl)ccc2o1 [UNC2383]
effectiveness in cells compared to Retro-1 (HeLaLuc705 cells): far more effective | effectiveness in cells compared to UNC10217938 (HeLaLuc705 cells): approximately equivalent | enhancement of SSO actions (HeLaLuc705 cells; 2 μM): quite strongly enhanced | SSO-mediated luciferase induction, comparison with chloroquine (HeLaLuc705 cells; FIG. 9C, 2 h, chloroquine also 16 h): very active | onset of action: effects first observed (HeLaLuc705 cells; [2]): ≤ 30 min | onset of action: reaching a plateau (HeLaLuc705 cells; [2]): ≤ 120 min | EC50 (HeLaLuc705 cells; luciferase induction by SSO623): 2000 nM | luciferase induction after mismatched oligonucleotide (HeLaLuc705 cells; mismatched oligonucleotide followed by compound): no effect | CFTR channel activity / functional correction ([1]; SSO A 1 uM overnight, OEC 4 uM 2 hs luminal or serosal, 72 h, approved drugs in parallel): significant enhancement | oligonucleotide enhancing activity in human airway epithelial cells ([1]; in vitro): negligible activity
